Reference: patent US12318455B2, “Anti-HER2 antibody-drug conjugate and application thereof” (HANGZHOU ADCORIS BIOPHARMA CO., LTD., priority 2016, dated 2025)

Assays:
Type in all cases: cell-based
[1] = tested on: SKBR-3; assay: Tumor cell inhibition experiment (CCK-8), SKBR-3; conditions: SKBR-3, HER2 3+, 3 days, read-out: IC50 values (nM) of anti-HER2 antibody-drug conjugates to HER2-expressing tumor cells
Protocol: (§1) This example examined the inhibitory activity of the antibody-drug conjugates of the present invention on HER2-positive cells. The tumor cell lines in this example were all purchased from ATCC, USA.
(§2) The experimental steps are as follows:
(§3) The cells were digested, collected by centrifugation, counted, and the cell liquid was diluted to 0.4-2.0×10^5 cells/ml, and 100 μl of said cell suspension was added to each well of a 96-well plate. The cells were cultured overnight in a 37° C. cell culture incubator, and ADC drugs with corresponding concentration was added the next day. The initial concentration of the drug was 1-15 μg/ml, and was diluted in 3-fold equal-gradient with a total of 9 concentration gradients. Finally, a set of zero-concentration cell were set as controls. After addition of drug, the cells were cultured for 3 days, and the drug-containing medium was sucked. 100 μl of 10% CCK-8 solution was added to each well, and incubated at 37° C. for 1-2 h, and then absorbance intensity of each well was detected at 490 nm with a microplate reader. The data was imported into a mapping software, the curve was fitted, and IC50 values were calculated.

[2] = tested on: MDA453; assay: Tumor cell inhibition experiment (CCK-8), MDA453; conditions: MDA453, HER2 2+, 3 days, read-out: IC50 values (nM) of anti-HER2 antibody-drug conjugates to HER2-expressing tumor cells
Protocol: as §1, §2, §3

[3] = tested on: OE-19; assay: Tumor cell inhibition experiment (CCK-8), OE-19; conditions: OE-19, HER2 3+, 3 days, read-out: IC50 values (nM) of anti-HER2 antibody-drug conjugates to HER2-expressing tumor cells
Protocol: as §1, §2, §3

[4] = tested on: NCI-N87; assay: Tumor cell inhibition experiment (CCK-8), NCI-N87; conditions: NCI-N87, HER2 3+, 3 days, read-out: IC50 values (nM) of anti-HER2 antibody-drug conjugates to HER2-expressing tumor cells
Protocol: as §1, §2, §3

[5] = tested on: BT474; assay: Tumor cell inhibition experiment (CCK-8), BT474; conditions: BT474, HER2 3+, 3 days, read-out: IC50 values (nM) of anti-HER2 antibody-drug conjugates to HER2-expressing tumor cells
Protocol: as §1, §2, §3

[6] = tested on: HCC1954; assay: Tumor cell inhibition experiment (CCK-8), HCC1954; conditions: HCC1954, HER2 3+, 3 days, read-out: IC50 values (nM) of anti-HER2 antibody-drug conjugates to HER2-expressing tumor cells
Protocol: as §1, §2, §3

## T-DM1
[1]
  IC50: 0.114 nM
[2]
  IC50: 0.259 nM
[3]
  IC50: 0.099 nM
[4]
  IC50: 0.548 nM
[5]
  IC50: 0.622 nM
[6]
  IC50: 0.159 nM
